Assay results reported in ChEMBL document CHEMBL5046281, “N-Aryl Mercaptopropionamides as Broad-Spectrum Inhibitors of Metallo-β-Lactamases” (J Med Chem, 2022).
Active and inactive are the calls of the source. No cut-off for these calls is given here.

Assays:
[1] = Inhibition of Escherichia coli NDM-1 using fluorocillin as substrate incubated for 30 mins by fluorescence based assay
Klebsiella pneumoniae [2] = test: Potentiation of imipenem-induced antibacterial activity against NDM-1 producing Klebsiella pneumoniae T2301 clinical isolates assessed as imipenem MIC at 128 mg/l by microdilution method; format: functional
Escherichia coli [3] = test: Potentiation of imipenem-induced antibacterial activity against NDM-1 producing Escherichia coli assessed as fold change in imipenem MIC at 8 ug/ml by microdilution method; format: functional; conditions: dose 8 µg/ml
Escherichia coli [4] = test: Potentiation of imipenem-induced antibacterial activity against NDM-1 producing Escherichia coli assessed as fold change in imipenem MIC at 4 ug/ml by microdilution method; format: functional; conditions: dose 4 µg/ml
Pseudomonas aeruginosa [5] = test: Inhibition of Pseudomonas aeruginosa quorum sensing system LasB at 100 uM
Escherichia coli [6] = test: Potentiation of imipenem-induced antibacterial activity against NDM-1 producing Escherichia coli assessed as imipenem MIC at 128 ug/ml by microdilution method (reference value: 128 ug/ml); format: functional; conditions: dose 128 µg/ml
Pseudomonas aeruginosa [7] = test: Potentiation of imipenem-induced antibacterial activity against VIM-1 producing Pseudomonas aeruginosa T2357 clinical isolates assessed as imipenem MIC at 128 mg/l by microdilution method; format: functional
Klebsiella pneumoniae [8] = test: Antibacterial activity against imipenem-resistant NDM-1-producing Klebsiella pneumoniae T2301 at 128 mg/L measured after 24 hrs by time-kill assay; format: functional, organism-based
[9] = Selectivity ratio of MIC for antibacterial activity against GIM-1 producing Enterobacter cloacae T2218 clinical isolates to MIC for potentiation of imipenem-induced antibacterial activity against GIM-1 producing Enterobacter cloacae T2218 clinical isolates assessed as imipenem MIC at 128 mg/l; format: functional
Escherichia coli [10] = test: Potentiation of imipenem-induced antibacterial activity against NDM-1 producing Escherichia coli assessed as imipenem MIC at 32 ug/ml by microdilution method (reference value: 128 ug/ml); format: functional; conditions: dose 32 µg/ml
[11] = Selectivity ratio of MIC for antibacterial activity against NDM-1 producing Serratia marcescens T2352 clinical isolates to MIC for potentiation of imipenem-induced antibacterial activity against NDM-1 producing Serratia marcescens T2352 clinical isolates assessed as imipenem MIC at 128 mg/l; format: functional
[12] = Selectivity ratio of MIC for antibacterial activity against VIM-1 producing Enterobacter cloacae T2353 clinical isolates to MIC for potentiation of imipenem-induced antibacterial activity against VIM-1 producing Enterobacter cloacae T2353 clinical isolates assessed as imipenem MIC at 128 mg/l; format: functional
A549 = test: Cytotoxicity against human A549 cells assessed as reduction in cell viability at 100 uM relative to control; format: toxicity, cell-based; conditions: a549, 100 µM
Escherichia coli [13] = test: Potentiation of imipenem-induced antibacterial activity against NDM-1 producing Escherichia coli assessed as imipenem MIC at 8 ug/ml by microdilution method (reference value: 128 ug/ml); format: functional; conditions: dose 8 µg/ml
Klebsiella pneumoniae [14] = test: Antibacterial activity against imipenem-resistant NDM-1-producing Klebsiella pneumoniae T2301 at 128 mg/L measured after 24 hrs in presence of imipenem by time-kill assay; format: functional, organism-based
Escherichia coli [15] = test: Antibacterial activity against NDM-1 expressing Escherichia coli isolates assessed as inhibition of bacterial growth by microdilution method; format: functional, organism-based
Escherichia coli [16] = test: Antibacterial activity against VIM-1 expressing Escherichia coli isolates assessed as inhibition of bacterial growth by microdilution method; format: functional, organism-based
[17] = target: T1, Interstitial collagenase (Homo sapiens) (UniProt P03956); test: Inhibition of human MMP-1 at 100 uM relative to control
T1 sequence (whole entry): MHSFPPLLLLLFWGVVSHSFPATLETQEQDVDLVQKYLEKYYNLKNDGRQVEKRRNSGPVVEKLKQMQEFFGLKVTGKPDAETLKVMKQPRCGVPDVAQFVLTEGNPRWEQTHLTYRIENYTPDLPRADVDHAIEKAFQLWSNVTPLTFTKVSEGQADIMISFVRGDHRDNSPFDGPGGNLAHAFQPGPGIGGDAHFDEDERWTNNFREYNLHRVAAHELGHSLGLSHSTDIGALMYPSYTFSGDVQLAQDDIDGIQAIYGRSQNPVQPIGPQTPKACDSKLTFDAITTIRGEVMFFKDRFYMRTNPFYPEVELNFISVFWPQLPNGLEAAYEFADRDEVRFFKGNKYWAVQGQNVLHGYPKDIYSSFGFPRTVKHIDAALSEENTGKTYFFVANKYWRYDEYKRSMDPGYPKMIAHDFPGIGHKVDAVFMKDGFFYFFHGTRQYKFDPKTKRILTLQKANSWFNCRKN

[18] = Selectivity ratio of MIC for antibacterial activity against VIM-1 producing Pseudomonas aeruginosa T2357 clinical isolates to MIC for potentiation of imipenem-induced antibacterial activity against VIM-1 producing Pseudomonas aeruginosa T2357 clinical isolates assessed as imipenem MIC at 128 mg/l; format: functional
Acinetobacter baumannii = test: Potentiation of imipenem-induced antibacterial activity against OXA-23 producing Acinetobacter baumannii T2434 clinical isolates assessed as imipenem MIC at 128 mg/l by microdilution method; format: functional
[19] = target: 72 kDa type IV collagenase (Homo sapiens, UniProt P08253); test: Inhibition of human MMP-2 at 100 uM relative to control
72 kDa type IV collagenase, sequence (P08253 110-660 limits assumed): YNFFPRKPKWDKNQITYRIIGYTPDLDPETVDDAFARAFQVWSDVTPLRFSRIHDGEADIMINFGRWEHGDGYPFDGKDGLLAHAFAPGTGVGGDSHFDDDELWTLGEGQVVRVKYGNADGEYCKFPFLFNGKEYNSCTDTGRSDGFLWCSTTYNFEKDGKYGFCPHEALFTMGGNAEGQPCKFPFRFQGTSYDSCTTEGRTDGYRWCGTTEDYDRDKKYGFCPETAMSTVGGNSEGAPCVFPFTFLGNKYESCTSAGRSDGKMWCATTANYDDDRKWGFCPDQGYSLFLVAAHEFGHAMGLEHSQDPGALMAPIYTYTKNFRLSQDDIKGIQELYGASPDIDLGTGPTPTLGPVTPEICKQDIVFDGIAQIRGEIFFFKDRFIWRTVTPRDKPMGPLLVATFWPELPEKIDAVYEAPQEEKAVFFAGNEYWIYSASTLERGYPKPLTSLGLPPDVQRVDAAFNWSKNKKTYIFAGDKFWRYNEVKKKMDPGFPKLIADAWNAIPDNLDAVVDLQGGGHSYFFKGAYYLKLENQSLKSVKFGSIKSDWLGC

Pseudomonas aeruginosa [20] = test: Potentiation of imipenem-induced antibacterial activity against IMP-1 producing Pseudomonas aeruginosa T2325 clinical isolates assessed as imipenem MIC at 128 mg/l by microdilution method; format: functional
[21] = target: Stromelysin-1 (Homo sapiens) (UniProt P08254); test: Inhibition of human MMP-3 at 100 uM relative to control
Stromelysin-1 (Homo sapiens), sequence (P08254 100-477 limits assumed): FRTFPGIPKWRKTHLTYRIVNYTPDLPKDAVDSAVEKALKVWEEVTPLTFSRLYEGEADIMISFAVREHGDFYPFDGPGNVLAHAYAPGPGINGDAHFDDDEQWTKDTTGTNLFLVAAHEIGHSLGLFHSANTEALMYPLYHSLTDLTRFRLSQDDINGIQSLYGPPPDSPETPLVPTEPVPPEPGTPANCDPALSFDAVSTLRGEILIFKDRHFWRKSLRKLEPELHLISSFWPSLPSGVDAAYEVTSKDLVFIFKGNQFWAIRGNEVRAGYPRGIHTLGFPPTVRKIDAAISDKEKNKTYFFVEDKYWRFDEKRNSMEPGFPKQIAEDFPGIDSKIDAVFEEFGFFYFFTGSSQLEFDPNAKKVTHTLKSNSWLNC

Escherichia coli [22] = test: Potentiation of imipenem-induced antibacterial activity against NDM-1 producing Escherichia coli assessed as fold change in imipenem MIC at 64 ug/ml by microdilution method; format: functional; conditions: dose 64 µg/ml
Klebsiella pneumoniae [23] = test: Synergistic antibacterial activity against NDM-1-producing Klebsiella pneumoniae T2301 clinical isolate assessed as fractional inhibitory concentration index in presence of imipenem by microdilution checkerboard assay; format: functional
Escherichia coli [24] = test: Potentiation of imipenem-induced antibacterial activity against NDM-7 producing Escherichia coli T2239 clinical isolates assessed as imipenem MIC at 128 mg/l by microdilution method; format: functional
Klebsiella pneumoniae [25] = test: Antibacterial activity against imipenem-resistant NDM-1-producing Klebsiella pneumoniae T2301 infected in Galleria mellonella larvae assessed as survival rate at 38.4 ug injected via proleg measured after 3 days in presence of imipenem by Kaplan-Meier method; format: functional; conditions: dose 38.4 µg; time 3 day
Escherichia coli [26] = test: Potentiation of imipenem-induced antibacterial activity against NDM-1 producing Escherichia coli assessed as imipenem MIC at 16 ug/ml by microdilution method (reference value: 128 ug/ml); format: functional; conditions: dose 16 µg/ml
Escherichia coli [27] = test: Antibacterial activity against IMP-1 expressing Escherichia coli isolates assessed as inhibition of bacterial growth by microdilution method; format: functional, organism-based
Enterobacter cloacae = test: Potentiation of imipenem-induced antibacterial activity against NDM-1 producing Enterobacter cloacae T2311 clinical isolates assessed as imipenem MIC at 128 mg/l by microdilution method; format: functional
[28] = target: Disintegrin and metalloproteinase domain-containing protein 17 (Homo sapiens) (UniProt P78536); test: Inhibition of human TACE at 100 uM relative to control
Disintegrin and metalloproteinase domain-containing protein 17 (Homo sapiens), sequence (P78536 whole entry, the tested form may be a part): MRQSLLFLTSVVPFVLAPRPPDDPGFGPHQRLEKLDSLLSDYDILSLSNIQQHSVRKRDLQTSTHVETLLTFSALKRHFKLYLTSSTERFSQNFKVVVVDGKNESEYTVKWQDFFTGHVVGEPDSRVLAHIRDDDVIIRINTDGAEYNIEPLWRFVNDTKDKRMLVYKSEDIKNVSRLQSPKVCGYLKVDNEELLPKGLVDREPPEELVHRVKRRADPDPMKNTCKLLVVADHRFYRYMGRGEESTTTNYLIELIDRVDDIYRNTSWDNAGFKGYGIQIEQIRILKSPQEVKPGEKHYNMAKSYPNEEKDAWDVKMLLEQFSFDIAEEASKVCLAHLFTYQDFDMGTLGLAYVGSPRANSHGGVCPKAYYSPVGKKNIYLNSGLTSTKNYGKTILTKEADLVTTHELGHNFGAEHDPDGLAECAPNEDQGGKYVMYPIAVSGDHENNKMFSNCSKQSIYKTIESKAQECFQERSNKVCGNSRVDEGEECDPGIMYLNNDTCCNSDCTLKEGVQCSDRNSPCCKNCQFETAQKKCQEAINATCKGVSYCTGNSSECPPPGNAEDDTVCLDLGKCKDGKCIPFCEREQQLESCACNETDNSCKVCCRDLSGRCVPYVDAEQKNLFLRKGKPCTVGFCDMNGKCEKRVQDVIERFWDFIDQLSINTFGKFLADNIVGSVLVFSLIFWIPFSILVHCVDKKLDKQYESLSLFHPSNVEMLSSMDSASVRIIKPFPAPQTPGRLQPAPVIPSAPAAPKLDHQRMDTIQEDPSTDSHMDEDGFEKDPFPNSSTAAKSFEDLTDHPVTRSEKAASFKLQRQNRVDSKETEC

In the case of `O=C(CCS)Nc1cccc(C(=O)O)c1`, the IC50 [1] is reported as 4 µM, the MIC (Klebsiella pneumoniae [2]) is reported as 0.5 µg/mL and the “fold change (FC)” value (Escherichia coli [3]) is reported as 2. For the same compound, the “fold change (FC)” value (Escherichia coli [4]) was 1, the inhibition (Pseudomonas aeruginosa [5]) was “Active” and the MIC (Escherichia coli [6]) was ≤ 0.5 µg/mL. The MIC (Pseudomonas aeruginosa [7]) was 256 µg/mL, the Activity (Klebsiella pneumoniae [8]) was “inactive” and the Ratio [9] was 1. The MIC (Escherichia coli [10]) was 8 µg/mL, the Ratio [11] was 64 and the Ratio [12] was 2. For the same compound, the Activity (A549) was < 10%, the MIC (Escherichia coli [13]) was 64 µg/mL and the Activity (Klebsiella pneumoniae [14]) was “Active”. The Activity (Escherichia coli [15]) was “inactive”, the Activity (Escherichia coli [16]) was “inactive” and the inhibition [17] was < 10%. For the same compound, the Ratio [18] was 1, the MIC (Acinetobacter baumannii) was 32 µg/mL and the inhibition [19] was < 10%. The MIC (Pseudomonas aeruginosa [20]) was 16 µg/mL, the inhibition [21] was < 10% and the “fold change (FC)” value (Escherichia coli [22]) was 64. For the same compound, the “fractional inhibitory concentration index (FICI)” value (Klebsiella pneumoniae [23]) was 0.25, the MIC (Escherichia coli [24]) was 2 µg/mL and the Activity (Klebsiella pneumoniae [25]) was “<=56%”. For the same compound, the MIC (Escherichia coli [26]) was 64 µg/mL, the Activity (Escherichia coli [27]) was “inactive” and the MIC (Enterobacter cloacae) was 1 µg/mL. The inhibition [28] was < 10%.
